Results: patent US10604514B2, “6-(5-membered heteroaryl)isoquinolin-3-yl carboxamides and preparation and use thereof” (Samumed, LLC, priority 2017, dated 2020)
Like-named read-outs stand apart in the source and are kept apart here.

Experiments:
IL-6 = IL-6 inhibition in LPS-stimulated human peripheral blood mononuclear cells (HTRF); type: cell-based; conditions: Homo sapiens, PBMC; IL-6, LPS-stimulated huPBMCs, HTRF
Protocol: Fresh Normal PB MNC (Catalog # PB001, AllCells, Alameda, Calif.) were shipped overnight at 4° C. and resuspended in Roswell Park Memorial Institute (RPMI) 1640 Medium, with GlutaMAX Supplement (Catalog #61870127, ThermoFisher Scientific, Waltham, Mass.) supplemented with 1% Penicillin-Streptomycin (Catalog #151401633 ThermoFisher Scientific, Waltham, Mass.) and 1% fetal bovine serum (FBS) (Catalog #16140089, ThermoFisher Scientific, Waltham, Mass.) assay media.
Fresh normal human peripheral blood mononuclear cells (huPBMCs) were resuspended in 1% FBS-RPMI assay media with 1% Penicillin-Streptomycin 1% to a cell concentration of 1×10e6 cells/mL. Each compound was dissolved in DMSO (Catalog # D8418-100 ml, Sigma-Aldrich, St. Louis, Mo.) as a 10 mM stock and used to prepare compound source plates. Serial dilution (1:3, 10-point dose-response curves starting from 10 μM) and compound transfer was performed using the ECHO 550 (Labcyte, Sunnyvale, Calif.) into 384-well white Proxiplate-Plus assay plates (Catalog #6008289, PerkinElmer, Shelton, Conn.) with appropriate DMSO backfill for a final DMSO concentration of 0.25%. huPBMCs were plated at 5000 cells/well in the 384-well Proxiplate-Plus assay plates and incubated at 37° C.-5% CO2 for 2 hours. 50 ng/mL of Lipopolysaccharides from Escherichia coli 0111:B4 (Catalog # L5293-2 ML, Sigma-Aldrich, St. Louis, Mo.) was added after 2 hours and cells were incubated for another 22 hours at 37° C.-5% CO2. After 22 hour incubation, a mixture of anti-IL6 XL665 and anti-IL-6 Cryptate diluted in reconstitution buffer (Catalog #62IL6PEC, Cisbio Inc., Bedford, Mass.) was added to each well. Following incubation for 3 hours at room temperature, Homogeneous Time-Resolved Fluorescence (HTRF) was measured using the Envision (Perkin Elmer, Shelton, Conn.) at 665 nm and […]. The ratio of fluorescence at 665 nm to 620 nm was used as a readout for IL-6 quantification. All samples were processed in duplicate. Readings were normalized to DMSO treated cells and normalized activities were utilized for EC50 calculations. EC50 was determined using software generated by Dotmatics Limited (Windhill Bishops Stortford Herts, UK) using the Levenberg-Marquardt 4 parameter fitting procedure with finite different gradients.

[1] = system: Tau phosphorylation at Ser396 (pSer396), SH-SY5Y cells; assay: Tau phosphorylation at Ser396 (pSer396) in SH-SY5Y cells, ELISA/western blot; type: cell-based, human;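 note: cell lysates probed for reduced Tau pSer396 via ELISA (colorimetric) or western blot (chemiluminescence), both with one shared pSer396 antibody, EC50 for lowering phosphorylation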
[2] = system: LL29 cells (primary human fibroblasts derived from IPF patients), α-smooth muscle actin; assay: Inhibition of fibrotic process: αSMA in TGF-β1-treated primary human fibroblasts from IPF patients (LL29 cells); type: cell-based; conditions: Homo sapiens, Fibroblast, 96 h; % αSMA-positive LL29 cells, TGF-β1 20 ng/mL, 4 days
Excerpt: Representative compounds were screened using primary human fibroblasts (derived from IPF patients) treated with TGF-β1 to determine their ability to inhibit the fibrotic process.
Primary human fibroblasts derived from IPF patients (LL29 cells) [^1Xiaoqiu Liu, et. al., “Fibrotic Lung Fibroblasts Show Blunted Inhibition by cAMP Due to Deficient cAMP Response Element-Binding Protein Phosphorylation”, Journal of Pharmacology and Experimental Therapeutics (2005), 315(2), 678-687; ^2Watts, K. L., et. al., “RhoA signaling modulates cyclin D1 expression in human lung fibroblasts; implications for idiopathic pulmonary fibrosis”, Respiratory Research (2006), 7(1), 88] were obtained from American Type Culture Collection (ATCC) and expanded in F12 medium supplemented with 15% Fetal Bovine Serum and 1% Penicillin/Streptomycin.
Each compound was dissolved in DMSO as a 10 mM stock and used to prepare compound source plates. Serial dilution (1:2, 11-point dose-response curves from […] to 0.94 nM) and compound transfer was performed using the ECHO 550 (Labcyte, Sunnyvale, Calif.) into 384-well clear bottom assay plates (Greiner Bio-One) with appropriate DMSO backfill for a final DMSO concentration of 0.1%. LL29 cells were plated at 1,500 cells/well in 70 μL/well F12 medium supplemented with 1% Fetal Bovine Serum. TGF-β1 (Peprotech; 20 ng/mL) was added to the plates to induce fibrosis (ref. 1 and 2 above). Wells treated with TGF-31 and containing DMSO were used as positive control, and cells with only DMSO were negative control. Cells were incubated at 37° C. and 5% CO2 for 4 days. Following incubation for 4 days, SYTOX green nucleic acid stain (Life Technologies [Thermo Fisher Scientific]) was added to the wells at a final concentration of 1 μM and incubated at room temperature for 30 min. Cells were then fixed using 4% formaldehyde (Electron Microscopy Sciences), washed 3 times with PBS followed by blocking and permeabilization using 3% Bovine Serum Albumin (BSA; Sigma) and 0.3% Triton X-100 (Sigma) in PBS. Cells were then stained with antibody specific to α-smooth muscle actin (αSMA; Abcam) (ref. 1 and 2 above) in 3% Bovine Serum Albumin (BSA; Sigma) and 0.3% Triton X-100 (Sigma) in PBS, and incubated overnight at 4° C. Cells were then washed 3 times with PBS, followed by incubation with Alexa Flor-647 conjugated secondary antibody (Life Technologies [Thermo Fisher Scientific]) and DAPI in 3% Bovine Serum Albumin (BSA; Sigma) and 0.3% Triton X-100 (Sigma) in PBS at room temperature for 1 hour. Cells were then washed 3 times with PBS and plates were sealed for imaging. αSMA staining was imaged by excitation at 630 nm and emission at 665 nm and quantified using the Compartmental Analysis program on the CellInsight CX5 (Thermo Scientific). Dead or apoptotic cells were excluded from analysis based on positive SYTOX green staining. % of total cells positive for αSMA were counted in each well and normalized to the average of 11 wells treated with TGF-β1 on the same plate using Dotmatics' Studies Software.

[3] = system: SW480 colon carcinoma cells; assay: Cell viability assay (CellTiter-Glo) in SW480 cells; type: cell-based, human; conditions: Homo sapiens, 96 h; cell viability, SW480 cells, four days, CellTiter-Glo;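 note: SW480 cells stably carrying an Sp5-luciferase TCF/LEF reporter, luminescent ATP signal as viability measure, DMSO-treated cells as control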
Protocol: Representative compounds were screened using the assay procedure to assess the effect on cell viability as described below.
For the Cell Viability Assays, the cells were plated at 2,000 cells/well in 384-well plates with a DMEM medium containing 1% fetal bovine serum, and 1% Penicillin-Streptomycin and incubated for four days hours at 37° C. and 5% CO2. Eight replicates of DMSO-treated cells served as controls and cells treated with compound were performed in duplicate.
After incubation, 10 μL of CellTiter-Glo (Promega) was added to each well allowed to incubate for approximately 12 minutes.
Dose-response curves were generated and EC50 concentration values were calculated using non-linear regression curve fit in the GraphPad Prism (San Diego, Calif.) or Dotmatics' Studies Software (Bishops Stortford, UK).

[4] = system: Wnt activity (Sp5-Luc reporter in SW480 colon carcinoma cells); assay: Wnt activity screening assay (Sp5-Luc reporter gene assay); type: cell-based, human; conditions: Homo sapiens; for EC50: Sp5-Luc reporter, SW480 cells, 36 to 48 hours
Excerpt: The screening assay for Wnt activity is described as follows. Reporter cell lines can be generated by stably transducing cancer cell lines (e.g., colon cancer) or primary cells (e.g., IEC-6 intestinal cells) with a lentiviral construct that includes a Wnt-responsive promoter driving expression of the firefly luciferase gene.
SW480 colon carcinoma cells were transduced with a lentiviral vector expressing luciferase with a human Sp5 promoter consisting of a sequence of eight TCF/LEF binding sites. SW480 cells stably expressing the Sp5-Luc reporter gene and a hygromycin resistance gene were selected by treatment with 150 μg/mL of hygromycin for 7 days. These stably transduced SW480 cells were expanded in cell culture and used for all further screening activities. Each compound was dissolved in DMSO as a 10 mM stock and used to prepare compound source plates. Serial dilution (1:3, 10-point dose-response curves starting from 10 μM) and compound transfer was performed using the ECHO 550 (Labcyte, Sunnyvale, Calif.) into 384-well white solid bottom assay plates (Greiner Bio-One) with appropriate DMSO backfill for a final DMSO concentration of 0.1%. For Sp5-Luc reporter gene assays, the cells were plated at 4,000 cells/well in 384-well plates with a DMEM medium containing 1% fetal bovine serum, and 1% Penicillin-Streptomycin and incubated for 36 to 48 hours at 37° C. and 5% CO2. Following incubation, 15 μl of BriteLite Plus luminescence reagent (Perkin Elmer) was added to each well of the 384-well assay plates. The plates were placed on an orbital shaker for 2 min and then luminescence was quantified using the Envision (Perkin Elmer) plate reader. Readings were normalized to DMSO only treated cells, and normalized activities were utilized for EC50 calculations using the dose-response log (inhibitor) vs. response -variable slope (four parameters) nonlinear regression feature available in GraphPad Prism 5.0 (or Dotmatics).

[5] = Homo sapiens, SH-SY5Y cells, overnight (16-18 h), read-out: pSer396 Tau EC50

Structure (SMILES) | EC50 (IL-6) [µM] | EC50 [1, 5] [µM] | EC50 [3] [µM] | EC50 [4] [µM] | EC50 [2] [µM] | inhibition at 10 µM ([4]; SW480, read-out: percent inhibition at 10 μM) [%] | EC50 ([1]; Homo sapiens, SH-SY5Y, read-out: EC50 in the Tau assay) [µM] | EC50 ([1]; control DYRK1A inhibitors, printed '>10 M' (μ probably lost), read-out: EC50 in the Tau assay) [µM]
[2H]c1c(NC(=O)C2CCN(CC(C)C)CC2)ncc2ccc(-c3cnn(C)c3)cc12 [Compound 6, 1-Isobutyl-N-(6-(1-methyl-1H-pyrazol-4-yl)isoquinolin-3-yl-4-d)piperidine-4-carboxamide] | 0.967 | 0.103 | 1.24 | 0.82 | 0.132 |  |  | 
[2H]c1nc(NC(=O)c2ccnc(N3CCN(CC)CC3)c2)cc2cc(-c3cnn(C)c3)ccc12 [Compound 8, 2-(4-Ethylpiperazin-1-yl)-N-(6-(1-methyl-1H-pyrazol-4-yl)isoquinolin-3-yl-1-d)isonicotinamide] | 0.932 | > 10 | 0.099 | 0.028 | 0.095 |  |  | 
[2H]c1nc(NC(=O)c2ccnc(N3CCN(C(C)C)CC3)c2)cc2cc(-c3cnn(C)c3)ccc12 [Compound 9, 2-(4-Isopropylpiperazin-1-yl)-N-(6-(1-methyl-1H-pyrazol-4-yl)isoquinolin-3-yl-1-d)isonicotinamide] | 1.87 | > 10 | 0.106 | 0.036 | 0.157 |  |  | 
Cc1nnc(-c2cc(F)c3cnc(NC(=O)C4CCC(NCC(F)F)CC4)cc3c2)s1 (stereo not shown) [Compound 204] |  | > 10 |  |  |  |  |  | 
COc1ccc2c(c1)[nH]c1c(C)nccc12 [Harmine, reference compound] |  |  |  |  |  |  | > 10 | 
CCN1/C(=C/C(C)=O)Sc2ccc(O)cc21 [Indy, reference compound] |  |  |  |  |  |  |  | > 10

More lines, main results first:

EC50 (IL-6) [µM] | EC50 [1, 5] [µM] | EC50 [3] [µM] | EC50 [4] [µM] | Structure (SMILES) | EC50 [2] [µM] | inhibition at 10 µM ([4]; SW480, read-out: percent inhibition at 10 μM) [%] | EC50 ([1]; Homo sapiens, SH-SY5Y, read-out: EC50 in the Tau assay) [µM] | EC50 ([1]; control DYRK1A inhibitors, printed '>10 M' (μ probably lost), read-out: EC50 in the Tau assay) [µM]
2.07 | > 10 |  | 2.06 | [2H]C1([2H])CCC([2H])([2H])N1c1cc(C(=O)Nc2cc3cc(-c4cnc(C)n4C)ccc3cn2)ccn1 [Compound 73, N-(6-(1,2-Dimethyl-1H-imidazol-5-yl)isoquinolin-3-yl)-2-(pyrrolidin-1-yl-2,2,5,5-d4)isonicotinamide] | 1.71 |  |  | 
1.13 | > 10 | 0.479 | > 10 | [2H]C1([2H])OC([2H])([2H])C([2H])([2H])N(c2cc(C(=O)Nc3cc4cc(-c5cnc(C)n5C)ccc4cn3)ccn2)C1([2H])[2H] [Compound 74, N-(6-(1,2-Dimethyl-1H-imidazol-5-yl)isoquinolin-3-yl)-2-(morpholino-d8) isonicotinamide] | 1.25 | 30.5 |  | 
0.857 | > 10 | 0.443 | 3.5 | [2H]C1([2H])N(c2cc(C(=O)Nc3cc4cc(-c5cncn5C)ccc4cn3)ccn2)C([2H])([2H])C([2H])([2H])C([2H])([2H])C1([2H])[2H] [Compound 75, N-(6-(1-Methyl-1H-imidazol-5-yl)isoquinolin-3-yl)-2-(piperidin-1-yl-d10) isonicotinamide] | 0.45 |  |  | 
0.927 | > 10 | 0.462 | 3.36 | [2H]C1([2H])OC([2H])([2H])C([2H])([2H])N(c2cc(C(=O)Nc3cc4cc(-c5cncn5C)ccc4cn3)ccn2)C1([2H])[2H] [Compound 76, N-(6-(1-Methyl-1H-imidazol-5-yl)isoquinolin-3-yl)-2-(morpholino-d8) isonicotinamide] | 0.611 |  |  | 
1.94 | > 10 |  | 3.35 | [2H]C1([2H])N(c2cc(C(=O)Nc3cc4cc(-c5cnc(C)n5C)ccc4cn3)ccn2)C([2H])([2H])C([2H])([2H])C1([2H])[2H] [Compound 77, N-(6-(1,2-Dimethyl-1H-imidazol-5-yl)isoquinolin-3-yl)-2-(pyrrolidin-1-yl-d8)isonicotinamide] | 2.15 |  |  | 
1.05 | > 10 | 0.468 | 3.73 | [2H]C1([2H])N(c2cc(C(=O)Nc3cc4cc(-c5cncn5C)ccc4cn3)ccn2)C([2H])([2H])C([2H])([2H])C1([2H])[2H] [Compound 78, N-(6-(1-Methyl-1H-imidazol-5-yl)isoquinolin-3-yl)-2-(pyrrolidin-1-yl-d8) isonicotinamide] | 0.526 |  |  | 
1.34 | > 10 | 0.464 | 4.04 | [2H]C1([2H])CCC([2H])([2H])N1c1cc(C(=O)Nc2cc3cc(-c4cncn4C)ccc3cn2)ccn1 [Compound 79, N-(6-(1-methyl-1H-imidazol-5-yl)isoquinolin-3-yl)-2-(pyrrolidin-1-yl-2,2,5,5-d4)isonicotinamide] | 0.572 |  |  | 
